Assay results: patent publication US20100183692A1, “COMPOSITIONS” (priority 2007, published 2010)
“Also recorded” adds a separate entry of the source.

Tests used:
Type in all cases: cell-based
[1] = test system: Aspergillus niger ATCC 16404 spores; assay: Sporicidal effect of a) and b) compounds in a cosmetic cream; conditions: for Reduction factor: cosmetic cream
Protocol: A preservative-free cosmetic cream for application to the human skin is used (Cremor basalis, Fagron GmbH, Barsbüttel, Germany).
Test samples of cream contain different amounts of compounds a) and b) added to an aliquot of 10 g of the cream in 50 ml tubes to give a concentration (w/w) of 0.125-0.25% as shown in the table below. After addition of the compounds a) and b), the cream is thoroughly mixed to achieve a homogeneous distribution.
After 1-3 days of equilibration of the cream (storage at room temperature to achieve a homogenous partitioning of compounds between oil and water phase), to each sample 100 μl of a spore suspension of Aspergillus niger ATCC 16404 containing 3×10^7 spores/ml (prepared as described in example 1) is added. After regular test intervals (7 days), samples of 1 g cream are removed and added to 20 ml of a neutralizer solution containing 0.2% lecithin, 2% Tween 80 and 0.5% NaCl. These dilutions are vigorously shaken for 10 min until the cream is dissolved, and then aliquots of this solution are spread plated on potato dextrose agar containing 0.2% Tween 80. After a sufficient time for colonies to grow (about 48 h), the number of colony forming units (and therefore surviving spores in the cream) are counted.

[2] = test system: Staphylococcus aureus (DSMZ 799) and Pseudomonas aeruginosa (ATCC 15442), mixed 1:1; assay: Bactericidal effect of a) and b) compounds in a cosmetic cream
Protocol: Test samples of the same cream used in Example 2 contain different amounts of compounds a) and b) added to an aliquot of 10 g of the cream in 50 ml tubes to give a concentration (w/w) of 0.125-0.25% as shown in the table below. After addition of the compounds a) and b), the cream is thoroughly mixed to achieve a homogeneous distribution.
As test organisms Staphylococcus aureus (DSMZ 799) and Pseudomonas aeruginosa (ATCC 15442) are used. The strains are grown overnight in Mueller-Hinton broth and adjusted to a cell density of 1×10^8 cfu (colony forming units) per ml.
The two bacterial strains are mixed in a ratio of 1:1 and 100 μl of this mixed inoculum is added to 10 ml aliquots of the cosmetic cream.
The resulting mixtures are incubated at room temperature and at the regular intervals samples are removed, suspended in neutralizer solution and diluted as described above (example 2).
Aliquots of these suspended and diluted samples are plated on tryptic soy agar supplemented with 0.5% Tween 80 and then incubated for 24 h at 37° C. Surviving bacteria are counted.

[3] = test system: Aspergillus niger ATCC 16404 spores; assay: Sporicidal effect of test compounds in water; conditions: for Spores/ml / Reduction factor: 0.1% test compound in water, after 7 days; for Reduction factor: count of negative control divided by count of test compound; for Reduction of spore counts / sporicidal effect in water (in words): 0.1% test compound, 7 days
Protocol: The reduction factor is determined by growing a suitable test organism (Aspergillus niger for fungi, Pseudomonas aeruginosa for gram-negative bacteria and Staphylococcus aureus for gram-positive bacteria) on a suitable culture medium on agar plates, harvesting and adding to a personal care product composition in a density of 3×10^5 organism/ml and counting the surviving organisms in the probe and a negative control at defined time interval, commonly 7 days. The count of the negative control is divided by the count of the probe and thereby the reduction factor is determined (compare example 1).
Aspergillus niger ATCC 16404 spores are added to water to obtain a density of 3×10^5 spores 1 ml. In order to prepare the spores, the test strain is grown for 5 days on potato dextrose agar at room temperature. The spores are harvested with a solution containing 0.1% Tween 80, peptone 0.1% and NaCl 0.85% and the spore concentration is adjusted to the density indicated above.
Test compounds are dissolved in dipropyleneglycol to a concentration of 20%.
These stock solutions are added to 10 ml aliquots of the spore suspension to obtain a final concentration of the test compounds of 0.1%. The sporicidal effect is shown by a reduction of spore counts after 7 days.
The reduction factor is determined as follows. Aliquots of the above prepared suspension of microorganisms (here: spore suspension prepared as described above) are plated on a suitable agar medium (see above) and the developing colonies are counted both for samples with test compound and for a negative probe (water). The count of the negative control is divided by the count of the test compound and thereby the reduction factor is determined. A negative control (water) accordingly has a reduction factor of 1 (no effect on the microorganism).

[4] = fragrant acid (sodium salt) 0.125% w/w, 4-HBA 0, after 7 days
[5] = fragrant acid (sodium salt) 0.250% w/w, 4-HBA 0, after 7 days
[6] = fragrant acid (sodium salt) 0.125% w/w, 4-HBA 0, after 24 h
[7] = fragrant acid (sodium salt) 0.250% w/w, 4-HBA 0, after 24 h

Compound: O=Cc1ccc(O)cc1 [4-hydroxybenzaldehyde]
- Sporicidal activity in cream (in words) ([1]; combined with cinnamic acid or anisic acid in cream at 0.125% concentration, within 7 days): complete killing of spores
- Reduction factor ([1]; no fragrant acid, 4-HBA 0.125% w/w, after 7 days): 5.5
- Reduction factor ([2]; no fragrant acid, 4-HBA 0.125% w/w, bacterial counts after 24 h): 10
- Spores/ml [3]: >1.2 × 10^5 Spores/ml
- Reduction factor [3]: <2
- Reduction of spore counts / sporicidal effect in water (in words) [3]: no significant sporicidal effect; also recorded: No significant reduction of spore counts

Compound: COc1ccc(C=O)cc1 [4-methoxy-benzaldehyde, 4-methoxybenzaldehyde]
- Spores/ml [3]: 4.68 × 10^4 Spores/ml
- Reduction factor [3]: 5
- Reduction of spore counts / sporicidal effect in water (in words) [3]: No significant reduction of spore counts

Compound: COc1ccc(C(=O)O)cc1 [Anisic acid, anisic acid]
- Reduction factor [1, 4]: 1.4
- Reduction factor [1, 5]: 12.5
- Reduction factor [2, 6]: 1
- Reduction factor [2, 7]: 5

Compound: O=C(O)/C=C/c1ccccc1 [Cinnamic acid, cinnamic acid]
- Reduction factor [1, 4]: 1.0
- Reduction factor [1, 5]: 1.1
- Reduction factor [2, 6]: 2.0
- Reduction factor [2, 7]: 10
